Laboratory results as given in patent US5525626A (priority 1989, dated 1996).

Legend:
Experiment in all cases: 3H-thymidine assay
Format in all cases: cell-based
[1] = system: Tp 242 MG glioblastoma cells; conditions: Homo sapiens
[2] = system: Z-R-75-1 breast cancer cells; conditions: Homo sapiens, ZR-75-1
CAKI-1 cells = conditions: Homo sapiens, CAKI-1
Protocol: (§1) The cell lines were cultivated as indicated in Example 1.
(§2) The antiproliferative effect of the 1,2-benzopyrone derivatives according to the invention on the tumor cell lines in each case was shown with the help of the ^3 H-thymidine insertion and with reference to growth curves.
(§3) In a 24-well-plate, in each case 10^4 cells of the line to be investigated were inoculated per well. Approximately 48 hours later the cells were half-confluent; the medium was then changed and replaced by a medium containing the active substance in question (cf Table 3). After a further 48 hours 0.25 μCi ^3 H-thymidine (Ammersham) was added to each well and the cells were incubated for a further 24 hours. Subsequently the cultures were washed twice with ice-cold PBS and the high-molecular-weight ^3 H-radioactivity was precipitated with 5% trichloroacetic acid for one hour at 4° C. After the washing of the cells in PBS the ^3 H-radioactivity was solubilized with 0.3M NaOH and measured in the counter. The growth-inhibition was determined by comparing the thymidine insertion of the cells treated with active substance with untreated cells.
(§4) The active substance concentration in each case was so chosen that ^3 H-thymidine insertion was 50% inhibited. The active substance concentrations used under this aspect for the active substances and cell lines in each case are given in table 4 below in μM/ml, […]

K-562 leukemic cells = conditions: Homo sapiens, K562
Protocol: as §1, §2, §3, §4

[3] = system: MCF-7 breast cancer cells; conditions: Homo sapiens, MCF7
Protocol: as §1, §2, §3, §4

At T 20 = conditions: Mus musculus, AtT20
Protocol: as §1, §2, §3, §4

[4] = system: Tp 410 N neuroblastoma cells; conditions: Homo sapiens, Neuroblastoma cell
CAKI-2 cells = conditions: Homo sapiens, CAKI-2
Protocol: as §1, §2
as §3, with “After a further 48 hours 0.25 μCi ^3 H-thymidine (Ammersham) was added to each well and the cells were incubated for a further 24 hours.” left out
as §4

HCV cells = system: HCV cells
[5] = 1 μM/ml, read-out: 3H-thymidine insertion (%) of control
[6] = 2 μM/ml, read-out: 3H-thymidine insertion (%) of control
[7] = 4 μM/ml, read-out: 3H-thymidine insertion (%) of control
[8] = 8 μM/ml, read-out: 3H-thymidine insertion (%) of control
[9] = 16 μM/ml, read-out: 3H-thymidine insertion (%) of control
[10] = 25 μM/ml, read-out: 3H-thymidine insertion (%) of control
[11] = 50 μM/ml, read-out: 3H-thymidine insertion (%) of control
[12] = 100 μM/ml, read-out: 3H-thymidine insertion (%) of control
[13] = 250 μM/ml, read-out: 3H-thymidine insertion (%) of control
[14] = 500 μM/ml, read-out: 3H-thymidine insertion (%) of control
[15] = Table 4, read-out: active substance concentration at which 3H-thymidine insertion was 50% inhibited
[16] = 1 μM/ml, read-out: 3H-thymidine tracer (%) of control
[17] = 2 μM/ml, read-out: 3H-thymidine tracer (%) of control
[18] = 4 μM/ml, read-out: 3H-thymidine tracer (%) of control
[19] = 8 μM/ml, read-out: 3H-thymidine tracer (%) of control
[20] = 16 μM/ml, read-out: 3H-thymidine tracer (%) of control
[21] = 25 μM/ml, read-out: 3H-thymidine tracer (%) of control
[22] = 50 μM/ml, read-out: 3H-thymidine tracer (%) of control
[23] = 100 μM/ml, read-out: 3H-thymidine tracer (%) of control
[24] = 250 μM/ml, read-out: 3H-thymidine tracer (%) of control
[25] = 500 μM/ml, read-out: 3H-thymidine tracer (%) of control
[26] = Table 4, *: maximum usable dosage, no 50% inhibition, read-out: active substance concentration at which 3H-thymidine insertion was 50% inhibited
[27] = 150 μM/ml, read-out: 3H-thymidine tracer (%) of control

O=c1ccc2ccc(O)cc2o1 [7-OH-1,2-BP, 7-hydroxy-1,2-benzopyrone]
activity at 1 µM [1, 5]: 93% | activity at 2 µM [1, 6]: 91% | activity at 4 µM [1, 7]: 91% | activity at 8 µM [1, 8]: 84% | activity at 16 µM [1, 9]: 73% | activity at 25 µM [1, 10]: 55% | activity at 50 µM [1, 11]: 43% | activity at 100 µM [1, 12]: 39% | activity at 250 µM [1, 13]: 35% | activity at 500 µM [1, 14]: 32% | IC50 [1, 15]: 25 µM | activity at 1 µM [2, 16]: 96% | activity at 2 µM [2, 17]: 91% | activity at 4 µM [2, 18]: 82% | activity at 8 µM [2, 19]: 73% | activity at 16 µM [2, 20]: 65% | activity at 25 µM [2, 21]: 55% | activity at 50 µM [2, 22]: 49% | activity at 100 µM [2, 23]: 43% | activity at 250 µM [2, 24]: 39% | activity at 500 µM [2, 25]: 27% | IC50 [2, 26]: 50 µM | activity at 1 µM (CAKI-1 cells; [16]): 100% | activity at 2 µM (CAKI-1 cells; [17]): 98% | activity at 4 µM (CAKI-1 cells; [18]): 90% | activity at 8 µM (CAKI-1 cells; [19]): 81% | activity at 16 µM (CAKI-1 cells; [20]): 76% | activity at 25 µM (CAKI-1 cells; [21]): 62% | activity at 50 µM (CAKI-1 cells; [22]): 57% | activity at 100 µM (CAKI-1 cells; [23]): 49% | activity at 150 µM (CAKI-1 cells; [27]): 44% | activity at 500 µM (CAKI-1 cells; [25]): 40% | IC50 (CAKI-1 cells; [26]): 100 µM | activity at 1 µM (K-562 leukemic cells; [16]): 100% | activity at 2 µM (K-562 leukemic cells; [17]): 91% | activity at 4 µM (K-562 leukemic cells; [18]): 84% | activity at 8 µM (K-562 leukemic cells; [19]): 76% | activity at 16 µM (K-562 leukemic cells; [20]): 67% | activity at 25 µM (K-562 leukemic cells; [21]): 53% | activity at 50 µM (K-562 leukemic cells; [22]): 47% | activity at 100 µM (K-562 leukemic cells; [23]): 42% | activity at 250 µM (K-562 leukemic cells; [24]): 39% | activity at 500 µM (K-562 leukemic cells; [25]): 37% | IC50 (K-562 leukemic cells; [15]): 50 µM | activity at 1 µM [3, 16]: 98% | activity at 2 µM [3, 17]: 94% | activity at 4 µM [3, 18]: 88% | activity at 8 µM [3, 19]: 82% | activity at 16 µM [3, 20]: 75% | activity at 25 µM [3, 21]: 69% | activity at 50 µM [3, 22]: 62% | activity at 100 µM [3, 23]: 51% | activity at 250 µM [3, 24]: 43% | activity at 500 µM [3, 25]: 29% | IC50 [3, 26]: 100 µM | activity at 1 µM (At T 20; [16]): 98% | activity at 2 µM (At T 20; [17]): 89% | activity at 4 µM (At T 20; [18]): 85% | activity at 8 µM (At T 20; [19]): 78% | activity at 16 µM (At T 20; [20]): 65% | activity at 25 µM (At T 20; [21]): 60% | activity at 50 µM (At T 20; [22]): 62% | activity at 100 µM (At T 20; [23]): 44% | activity at 250 µM (At T 20; [24]): 38% | activity at 500 µM (At T 20; [25]): 31% | IC50 (At T 20; [15]): 50 µM | activity at 1 µM [4, 5]: 96% | activity at 2 µM [4, 6]: 91% | activity at 4 µM [4, 7]: 80% | activity at 8 µM [4, 8]: 73% | activity at 16 µM [4, 9]: 67% | activity at 25 µM [4, 10]: 50% | activity at 50 µM [4, 11]: 48% | activity at 100 µM [4, 12]: 42% | activity at 250 µM [4, 13]: 36% | activity at 500 µM [4, 14]: 21% | IC50 [4, 15]: 25 µM | activity at 1 µM (CAKI-2 cells; [16]): 95% | activity at 2 µM (CAKI-2 cells; [17]): 92% | activity at 4 µM (CAKI-2 cells; [18]): 88% | activity at 8 µM (CAKI-2 cells; [19]): 77% | activity at 16 µM (CAKI-2 cells; [20]): 71% | activity at 25 µM (CAKI-2 cells; [21]): 65% | activity at 50 µM (CAKI-2 cells; [22]): 54% | activity at 100 µM (CAKI-2 cells; [23]): 46% | activity at 150 µM (CAKI-2 cells; [27]): 39% | activity at 500 µM (CAKI-2 cells; [25]): 35% | IC50 (CAKI-2 cells; [26]): 75 µM | activity at 1 µM (HCV cells; [16]): 98% | activity at 2 µM (HCV cells; [17]): 95% | activity at 4 µM (HCV cells; [18]): 88% | activity at 8 µM (HCV cells; [19]): 82% | activity at 16 µM (HCV cells; [20]): 74% | activity at 25 µM (HCV cells; [21]): 69% | activity at 50 µM (HCV cells; [22]): 63% | activity at 250 µM (HCV cells; [24]): 57% | activity at 500 µM (HCV cells; [25]): 50% | IC50 (HCV cells; [26]): 500 µM
